Measured values taken from patent EP0050407A1, “3,5-Disubstituted-1,2,4-triazole compounds, processes for their preparation and pharmaceutical compositions containing them” (GLAXO GROUP LIMITED, priority 1980, dated 1982).
Counter-ions that a name gives are not always drawn.

Tests used:
[1] = system: secretion of gastric acid; experiment: perfused rat stomach test (inhibition of gastric acid secretion stimulated via histamine receptors); format: in vivo
Text: Certain novel heterocyclic derivatives have now been found which have potent activity as H2-antagonists.

rats = experiment: toxicity in rats; format: in vivo
[2] = administered intravenously to rats at doses of at least twice their ED50 values

SMILES | ED50 [1] [mg/kg] | toxic effects (rats; [2]) | toxic effects (rats; administered orally to rats at a dose of 400 mg/kg)
OCCc1n[nH]c(CCCCOc2cccc(CN3CCCCC3)c2)n1 [2(a), 5-[4-[3-(1-Piperidinylmethyl)phenoxy]butyl]-1H-1,2,4-triazole-3-(2-ethanol) maleate (1:2)] | < 0.63 |  | 
CS(=O)(=O)Cc1n[nH]c(CCCCOc2cccc(CN3CCCCC3)c2)n1 [Example 7, 3-(Methylsulphonyl)methyl-5-[4-[3-(1-piperidinylmethyl)phenoxy]butyl]-lH-l,2,4-triazole] | < 0.63 | no toxic effects | 
CC(O)c1n[nH]c(CCCCOc2cccc(CN3CCCCC3)c2)n1 (stereo not shown) [2(e), 5-[4-[3-(1-piperidinylmethyl)phenoxy]butyl]-1H-1,2,4-triazole-3-(1-ethanol)oxalate (1:2)] | < 0.63 |  | 
ON=Cc1n[nH]c(CCCCOc2cccc(CN3CCCCC3)c2)n1 [Example 9, 5-[4-[3-(1-Piperidinylmethyl)phenoxy]butyl]-1H-1,2,4,- triazole-3-carboxaldehyde oxime] | < 0.63 | no toxic effects | 
O=Cc1n[nH]c(CCCCOc2cccc(CN3CCCCC3)c2)n1 [Example 8, 5-[4-[3-(1-Piperidinylmethyl)phenoxy]butyl]-1H-1,2,4-triazole-3-carboxaldehyde hydrate] | < 0.63 |  | 
CC(=O)OCc1n[nH]c(CCCCOc2cccc(CN3CCCCC3)c2)n1 [Example 3, 5-[4-[3-(1-Piperidinylmethyl)phenoxy]butyl]-1H-1,2,4-triazole-3-methanol acetate(ester)fumarate] | < 0.63 |  | 
OCc1n[nH]c(CCCCOc2cccc(CN3CCCCC3)c2)n1 [Example 6] | < 0.63 |  | no toxic effects
